In patent US10173991B2, “Sulfone amide linked benzothiazole inhibitors of endothelial lipase” (BRISTOL-MYERS SQUIBB COMPANY, priority 2014, dated 2019):

molecular target: Endothelial lipase (EL) (Homo sapiens (Human), UniProt Q9Y5X9); test: Endothelial lipase (EL) enzymatic assay with fluorescent substrate A10070 in DMPG vesicles; assay type: biochemical
Method in brief: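 Compounds were preincubated with enzyme for 30 min at 37° C before FRET-substrate vesicles (A10070 in DMPG, 0.11 mole fraction) were added. Reaction rates were obtained from the 300–900 sec slope of fluorescence at 490/530 nm.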

Endothelial lipase (EL), sequence (Q9Y5X9 21-500): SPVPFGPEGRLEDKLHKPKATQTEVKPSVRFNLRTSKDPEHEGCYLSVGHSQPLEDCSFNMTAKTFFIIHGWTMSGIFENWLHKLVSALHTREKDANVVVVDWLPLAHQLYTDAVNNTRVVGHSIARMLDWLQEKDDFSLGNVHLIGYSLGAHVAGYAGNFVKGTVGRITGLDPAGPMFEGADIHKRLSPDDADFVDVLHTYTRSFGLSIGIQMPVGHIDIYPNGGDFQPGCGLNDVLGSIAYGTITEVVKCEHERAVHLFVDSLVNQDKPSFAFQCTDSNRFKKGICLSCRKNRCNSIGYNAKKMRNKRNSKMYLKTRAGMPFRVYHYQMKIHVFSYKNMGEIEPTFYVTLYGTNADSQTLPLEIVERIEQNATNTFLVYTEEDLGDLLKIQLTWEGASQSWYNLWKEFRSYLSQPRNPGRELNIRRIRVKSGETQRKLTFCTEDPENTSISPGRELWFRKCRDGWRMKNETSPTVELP

Compound	IC50
CS(=O)(=O)C(C(=O)NCC(=O)NC1CC1)c1nc2c(Cl)cc(-c3ccc(F)nc3)cc2s1 (stereo not shown) [Example 121, 2-[4-chloro-6-(6-fluoropyridin-3-yl)-1,3-benzothiazol-2-yl]-N-[(cyclopropyl-carbamoyl)methyl]-2-methanesulfonyl-acetamide]	14 nM
COC(=O)Nc1ccc(-c2cc3nc(C(C(=O)NCC(=O)NC4CC4)S(C)(=O)=O)sc3cc2F)cc1F (stereo not shown) [Example 122, methyl N-{4-[2-({[(cyclopropyl-carbamoyl)methyl]carbamoyl} (methanesulfonyl)methyl)-6-fluoro-1,3-benzothiazol-5-yl]-2-fluorophenyl} carbamate]	7 nM
COC(=O)Nc1cccc(-c2cc3nc(C(C(=O)NCC(=O)NC4CC4)S(C)(=O)=O)sc3cc2F)c1 (stereo not shown) [Example 123, methyl N-{3-[2-({[(cyclopropyl-carbamoyl)methyl]carbamoyl} (methanesulfonyl)methyl)-6-fluoro-1,3-benzothiazol-5-yl]phenyl} carbamate]	5 nM
COC(=O)Nc1ccc(-c2cc(Cl)c3nc(C(C(=O)NCC(=O)NC4CC4)S(C)(=O)=O)sc3c2)cc1F (stereo not shown) [Example 124, methyl N-{4-[4-chloro-2-({[(cyclopropyl-carbamoyl)methyl]carbamoyl} (methanesulfonyl)methyl)-1,3-benzothiazol-6-yl]-2-fluorophenyl} carbamate]	2 nM
COC(=O)Nc1ccc(-c2cc(Cl)c3nc(C(C(=O)NCC(=O)NC4CC4)S(C)(=O)=O)sc3c2)cc1 (stereo not shown) [Example 125, methyl N-{4-[4-chloro-2-({[(cyclopropyl-carbamoyl)methyl]carbamoyl} (methanesulfonyl)methyl)-1,3-benzothiazol-6-yl]phenyl} carbamate]	2 nM
Cc1ncc(-c2ccc3sc(C(C(=O)NCC(=O)NC4CC4)S(C)(=O)=O)nc3c2F)cn1 (stereo not shown) [Example 126, N-[(cyclopropyl-carbamoyl)methyl]-2-[4-fluoro-5-(2-methylpyrimidin-5-yl)-1,3-benzothiazol-2-yl]-2-methanesulfonyl-acetamide]	137 nM
CS(=O)(=O)C(C(=O)NCC(=O)NC1CC1)c1nc2c(F)c(-c3ccc(NC(=O)OCc4ccccc4)cc3)ccc2s1 (stereo not shown) [Example 127, benzyl N-{4-[2-({[(cyclopropyl-carbamoyl)methyl]carbamoyl} (methanesulfonyl)methyl)-4-fluoro-1,3-benzothiazol-5-yl]phenyl} carbamate]	3 nM
COCCS(=O)(=O)C(C(=O)NCC(=O)NC1CC1)c1nc2cc(-c3ccc(-c4nnn[nH]4)cc3)c(F)cc2s1 (stereo not shown) [Example 128, N-[(cyclopropyl-carbamoyl)methyl]-2-{6-fluoro-5-[4-(1H-1,2,3,4-tetrazol-5-yl)phenyl]-1,3-benzothiazol-2-yl}-2-(2-methoxyethane-sulfonyl) acetamide]	97 nM
COCCS(=O)(=O)C(C(=O)NCC(=O)NC1CC1)c1nc2cc(-c3cccc(-c4cc[nH]n4)c3)c(F)cc2s1 (stereo not shown) [Example 129, N-[(cyclopropyl-carbamoyl)methyl]-2-{6-fluoro-5-[3-(1H-pyrazol-3-yl)phenyl]-1,3-benzothiazol-2-yl}-2-(2-methoxyethane-sulfonyl) acetamide]	12 nM
COCCS(=O)(=O)C(C(=O)NCC(=O)NC1CC1)c1nc2cc(-c3ccc(-c4ccn[nH]4)cc3)c(F)cc2s1 (stereo not shown) [Example 130, N-[(cyclopropyl-carbamoyl)methyl]-2-{6-fluoro-5-[4-(1H-pyrazol-5-yl)phenyl]-1,3-benzothiazol-2-yl}-2-(2-methoxyethane-sulfonyl) acetamide]	18 nM
COCCS(=O)(=O)C(C(=O)NCC(=O)NC1CC1)c1nc2cc(-c3cnc(-n4cccn4)nc3)c(F)cc2s1 (stereo not shown) [Example 131, N-[(cyclopropyl-carbamoyl)methyl]-2-{6-fluoro-5-[2-(1H-pyrazol-1-yl)pyrimidin-5-yl]-1,3-benzothiazol-2-yl}-2-(2-methoxyethane-sulfonyl) acetamide]	131 nM
COCCS(=O)(=O)C(C(=O)NCC(=O)NC1CC1)c1nc2cc(-c3ccc(-n4cnnn4)cc3)c(F)cc2s1 (stereo not shown) [Example 132, N-[(cyclopropyl-carbamoyl)methyl]-2-{6-fluoro-5-[4-(1H-1,2,3,4-tetrazol-1-yl)phenyl]-1,3-benzothiazol-2-yl}-2-(2-methoxyethane-sulfonyl) acetamide]	52 nM
COCCS(=O)(=O)C(C(=O)NCC(=O)NC1CC1)c1nc2cc(-c3cccc(-c4nnn[nH]4)c3)c(F)cc2s1 (stereo not shown) [Example 133, N-[(cyclopropyl-carbamoyl)methyl]-2-{6-fluoro-5-[3-(1H-1,2,3,4-tetrazol-5-yl)phenyl]-1,3-benzothiazol-2-yl}-2-(2-methoxyethane-sulfonyl) acetamide]	145 nM
COCCS(=O)(=O)C(C(=O)NCC(=O)NC1CC1)c1nc2cc(-c3cccc(C(=O)OC(C)(C)C)c3)ccc2s1 (stereo not shown) [Example 134, tert-butyl 3-[2-({[(cyclopropyl-carbamoyl)methyl]carbamoyl}(2-methoxyethane-sulfonyl)methyl)-1,3-benzothiazol-5-yl]benzoate]	2 nM
COCCS(=O)(=O)C(C(=O)NCC(=O)NC1CC1)c1nc2cc(-c3ccc(F)cc3)ccc2s1 (stereo not shown) [Example 135, N-[(cyclopropyl-carbamoyl)methyl]-2-[5-(4-fluorophenyl)-1,3-benzothiazol-2-yl]-2-(2-methoxyethane-sulfonyl) acetamide]	49 nM
O=C(CNC(=O)C(c1nc2cc(F)c(-c3ccn(Cc4ccccc4)c(=O)c3)cc2s1)S(=O)(=O)CCC(F)(F)F)NC1CC1 (stereo not shown) [Example 136, 2-[6-(1-benzyl-2-oxo-1,2-dihydropyridin-4-yl)-5-fluoro-1,3-benzothiazol-2-yl]-N-[(cyclopropyl-carbamoyl)methyl]-2-(3,3,3-trifluoropropane-sulfonyl) acetamide]	6 nM
O=C(CNC(=O)C(c1nc2cc(F)c(-c3cccc(-n4cccn4)c3)cc2s1)S(=O)(=O)CCC(F)(F)F)NC1CC1 (stereo not shown) [Example 137, N-[(cyclopropyl-carbamoyl)methyl]-2-{5-fluoro-6-[3-(1H-pyrazol-1-yl)phenyl]-1,3-benzothiazol-2-yl}-2-(3,3,3-trifluoropropane-sulfonyl) acetamide]	1 nM
O=C(CNC(=O)C(c1nc2cc(F)c(-c3ccc(-n4cccn4)cc3)cc2s1)S(=O)(=O)CCC(F)(F)F)NC1CC1 (stereo not shown) [Example 138, N-[(cyclopropyl-carbamoyl)methyl]-2-{5-fluoro-6-[4-(1H-pyrazol-1-yl)phenyl]-1,3-benzothiazol-2-yl}-2-(3,3,3-trifluoropropane-sulfonyl) acetamide]	6 nM
COCCS(=O)(=O)C(C(=O)NCC(=O)NC1CC1)c1nc2cc(F)c(-c3ccc(-n4cccn4)cc3)cc2s1 (stereo not shown) [Example 139, N-[(cyclopropyl-carbamoyl)methyl]-2-{5-fluoro-6-[4-(1H-pyrazol-1-yl)phenyl]-1,3-benzothiazol-2-yl}-2-(2-methoxyethane-sulfonyl) acetamide]	2 nM
COCCS(=O)(=O)C(C(=O)NCC(=O)NC1CC1)c1nc2cc(F)c(-c3cnc(OC)c(N)c3)cc2s1 (stereo not shown) [Example 140]	12 nM
COCCS(=O)(=O)C(C(=O)NCC(=O)NC1CC1)c1nc2cc(F)c(-c3cccc(-n4cccn4)c3)cc2s1 (stereo not shown) [Example 141, N-[(cyclopropyl-carbamoyl)methyl]-2-{5-fluoro-6-[3-(1H-pyrazol-1-yl)phenyl]-1,3-benzothiazol-2-yl}-2-(2-methoxyethane-sulfonyl) acetamide]	2 nM
O=C(CNC(=O)C(c1nc2cc(F)c(-c3ccc(-n4cnnn4)cc3)cc2s1)S(=O)(=O)CCC(F)(F)F)NC1CC1 (stereo not shown) [Example 142, N-[(cyclopropyl-carbamoyl)methyl]-2-{5-fluoro-6-[4-(1H-1,2,3,4-tetrazol-1-yl)phenyl]-1,3-benzothiazol-2-yl}-2-(3,3,3-trifluoropropane-sulfonyl) acetamide]	5 nM
O=C(CNC(=O)C(c1nc2cc(F)c(-c3cccc(-c4cc[nH]n4)c3)cc2s1)S(=O)(=O)CCC(F)(F)F)NC1CC1 (stereo not shown) [Example 143, N-[(cyclopropyl-carbamoyl)methyl]-2-{5-fluoro-6-[3-(1H-pyrazol-3-yl)phenyl]-1,3-benzothiazol-2-yl}-2-(3,3,3-trifluoropropane-sulfonyl) acetamide]	3 nM
O=C(CNC(=O)C(c1nc2cc(F)c(-c3ccc(-c4ccn[nH]4)cc3)cc2s1)S(=O)(=O)CCC(F)(F)F)NC1CC1 (stereo not shown) [Example 144, N-[(cyclopropyl-carbamoyl)methyl]-2-{5-fluoro-6-[4-(1H-pyrazol-5-yl)phenyl]-1,3-benzothiazol-2-yl}-2-(3,3,3-trifluoropropane-sulfonyl) acetamide]	1 nM
COCCS(=O)(=O)C(C(=O)NCC(=O)NC1CC1)c1nc2cc(F)c(-c3ccc(-c4ccno4)cc3)cc2s1 (stereo not shown) [Example 145, N-[(cyclopropyl-carbamoyl)methyl]-2-{5-fluoro-6-[4-(1,2-oxazol-5-yl)phenyl]-1,3-benzothiazol-2-yl}-2-(2-methoxyethane-sulfonyl) acetamide]	3 nM
COCCS(=O)(=O)C(C(=O)NCC(=O)NC1CC1)c1nc2cc(F)c(-c3ccc(-c4nn[nH]n4)cc3)cc2s1 (stereo not shown) [Example 146, N-[(cyclopropyl-carbamoyl)methyl]-2-{5-fluoro-6-[4-(2H-1,2,3,4-tetrazol-5-yl)phenyl]-1,3-benzothiazol-2-yl}-2-(2-methoxyethane-sulfonyl)acetamide]	6 nM
COCCS(=O)(=O)C(C(=O)NCC(=O)NC1CC1)c1nc2cc(F)c(-c3ccc(-c4nnc(C)o4)cc3)cc2s1 (stereo not shown) [Example 147, N-[(cyclopropyl-carbamoyl)methyl]-2-{5-fluoro-6-[4-(5-methyl-1,3,4-oxadiazol-2-yl)phenyl]-1,3-benzothiazol-2-yl}-2-(2-methoxyethane-sulfonyl) acetamide]	4 nM
COCCS(=O)(=O)C(C(=O)NCC(=O)NC1CC1)c1nc2cc(C)c(-c3ccc4c(cnn4C)c3)cc2s1 (stereo not shown) [Example 148, N-[(cyclopropyl-carbamoyl)methyl]-2-(2-methoxyethane-sulfonyl)-2-[5-methyl-6-(1-methyl-1H-indazol-5-yl)-1,3-benzothiazol-2-yl] acetamide]	2 nM
